The source of these data is patent publication US9949478B2, “Herbicidal combination with herbicidal active fatty acids and an ALS-inhibitor” (BAYER CROPSCIENCE AKTIENGESELLSCHAFT, priority 2013, dated 2018).

Experiment in all cases: Post-emergence test
What all share (type): in vivo

The test system of one test is Achillea millefolium. The settings on record: 34 days. The source says: (§1) The following formulations of the active compounds involved were used: • fatty acids 120 EC (fatty acid mixture of two fatty acids having hydrocarbon chains of 8 and 10 carbon atoms in a ratio of 60 to 40; for the preparation see EP application number 12177824.5; title: “Emulsifiable Concentrate Formulation with Herbicidal Active Fatty Acids); application date: Jul. 25, 2012). • foramsulfuron 50 WG (water dispersible granule) standard granule formulation without adjuvants • iodosulfuron 10 WG (water dispersible granule) • (commercial formulation Destiny, approved inter alia in Australia—Bayer CropScience) • mesosulfuron 75 WG (water dispersible granule) standard granule formulation without adjuvants • thiencarbazone 70 WG (water dispersible granule) standard granule formulation without adjuvants • flazasulfuron 25 WG (water dispersible granule) • (commercial formulation Chikara, approved inter alia in Germany—product licence holder ISK Biosciences) • amidosulfuron 75 WG (water dispersible granule) • (commercial formulation Hoestar, approved inter alia in Germany—Bayer CropScience) • ethoxysulfuron 60 WG (water dispersible granule) • (commercial formulation SunRice, approved inter alia in Italy—Bayer CropScience)
(§2) The active compound concentrations required for the tests were prepared by dilution with water. The tested active compound combinations were mixed shortly before their biological examination.
(§3) In the case of all herbicide combinations according to the invention, for most of the test plants synergistic actions are observed (see Tables 1 to 25).

Another test has as its system Bellis perennis. The settings on record: 34 days.
From the text: as §1, §2, §3

For another test, the system named is Chenopodium album.
From the text: as §1, §2, §3

Another test concerns Festuca ovina.
From the text: as §1, §2, §3

The test system of the next test is Lotus corniculatus. The settings on record: 34 days.
From the text: as §1, §2, §3

The next test has as its system Plantago lanceolata. The settings on record: 34 days.
From the text: as §1, §2, §3

The next test has as its system Plantago major.
From the text: as §1, §2, §3

The next test relates to Ranunculus repens. The settings on record: 34 days.
From the text: as §1, §2, §3

A further test deals with Rumex acetosa. The settings on record: 34 days.
From the text: as §1, §2, §3

Another test relates to Stellaria media. The settings on record: 34 days.
From the text: as §1, §2, §3

In another test the test system is Taraxacum officinale.
From the text: as §1, §2, §3

Another test deals with Trifolium repens.
From the text: as §1, §2, §3

The test system of a further test is Poa annua. The settings on record: 48 days.
From the text: as §1, §2, §3

Where [1] appears, read: 30 g of active compound/ha, 34 days.
The mark [2] stands for this setting: 60 g of active compound/ha, 34 days.
Where [3] appears, read: 37.5 g of active compound/ha, 34 days.
The mark [4] stands for this setting: 15 g of active compound/ha, 48 days.
Where [5] appears, read: 45 g of active compound/ha, 34 days.
The mark [6] stands for this setting: 45 g of active compound/ha, 48 days.
Setting [7] is: 60 g of active compound/ha, 48 days.
Setting [8] is: 1 g of active compound/ha, 48 days.
The mark [9] stands for this setting: 1.25 g of active compound/ha, 34 days.
The mark [10] stands for this setting: 1.25 g of active compound/ha, 48 days.
Setting [11] is: 2.5 g of active compound/ha, 48 days.
Setting [12] is: 10 g of active compound/ha, 48 days.
The mark [13] stands for this setting: 15 g of active compound/ha, 34 days.
The mark [14] stands for this setting: 20 g of active compound/ha, 34 days.

The structures appear in SMILES notation. Where “and” joins values, the source holds several entries; their conditions need not be identical. Identical values can stand only once.

In the case of `COc1cc(OC)nc(NC(=O)NS(=O)(=O)N(C)S(C)(=O)=O)n1` [Amidosulfuron, 3-(4,6-dimethoxypyrimidin-2-yl)-1-(N-methyl-N-methylsulfonylaminosulfonyl)urea], the “herbicidal effect [%]” value in the test on Achillea millefolium (30 g of active compound/ha) was 18%; in the test with Bellis perennis (30 g of active compound/ha), 33%; with Chenopodium album (setting [1]), 27%; in the test on Festuca ovina (setting [1]), 0%; in the test on Lotus corniculatus (30 g of active compound/ha), 0%; in the test on Plantago lanceolata (30 g of active compound/ha), 13%. The “herbicidal effect [%]” value with Plantago major (setting [1]) is 88%; with Ranunculus repens (30 g of active compound/ha), 96%; in the test on Rumex acetosa (30 g of active compound/ha), 28%; in the test with Stellaria media (30 g of active compound/ha), 10%; in the test with Taraxacum officinale (setting [1]) it was 88%; in the test with Trifolium repens (setting [1]), 13%.
Take `CCOc1ccccc1OS(=O)(=O)NC(=O)Nc1nc(OC)cc(OC)n1` [Ethoxysulfuron, 2-ethoxyphenyl[(4,6-dimethoxypyrimidin-2-yl)carbamoyl]sulfamate]: the “herbicidal effect [%]” value with Achillea millefolium (60 g of active compound/ha) was found to be 13%; with Bellis perennis (60 g of active compound/ha), 10%; in the test on Chenopodium album (setting [2]), 5%; with Festuca ovina (setting [2]) it was 0%; in the test with Lotus corniculatus (60 g of active compound/ha), 0%; with Plantago lanceolata (60 g of active compound/ha), 5%. In addition, the “herbicidal effect [%]” value amounted to 0% in the test with Plantago major (setting [2]); 92% in the test on Ranunculus repens (60 g of active compound/ha); 25% in the test on Rumex acetosa (60 g of active compound/ha); 5% in the test with Stellaria media (60 g of active compound/ha); 38% in the test on Taraxacum officinale (setting [2]); 47% in the test on Trifolium repens (setting [2]).
On to `COc1cc(OC)nc(NC(=O)NS(=O)(=O)c2ncccc2C(F)(F)F)n1` [Flazasulfuron, 1-(4,6-dimethoxypyrimidin-2-yl)-3-(3-trifluoromethyl-2-pyridylsulfonyl)urea], for which the “herbicidal effect [%]” value worked out at 67% in the test with Achillea millefolium (37.5 g of active compound/ha); 52% in the test on Bellis perennis (37.5 g of active compound/ha); 70% in the test on Chenopodium album (setting [3]); 68% in the test with Festuca ovina (setting [3]); 23% in the test on Lotus corniculatus (37.5 g of active compound/ha); 7% in the test on Plantago lanceolata (37.5 g of active compound/ha). Also, the “herbicidal effect [%]” value with Plantago major (setting [3]) turned out to be 75%; in the test with Ranunculus repens (37.5 g of active compound/ha) it was 99%; in the test with Rumex acetosa (37.5 g of active compound/ha) it was 52%; in the test on Stellaria media (37.5 g of active compound/ha), 95%; in the test on Taraxacum officinale (setting [3]) it was 87%; in the test on Trifolium repens (setting [3]) it was 63%.
As for `COc1cc(OC)nc(NC(=O)NS(=O)(=O)c2cc(NC=O)ccc2C(=O)N(C)C)n1` [Foramsulfuron, 1-(4,6-dimethoxypyrimidin-2yl)-3-(2-dimethylcarbamoyl-5-formamidophenylsulfonyl)urea], the “herbicidal effect [%]” value with Achillea millefolium (45 g of active compound/ha) was 17%; with Bellis perennis (45 g of active compound/ha) it was 13%; with Chenopodium album (setting [4]) it was 0%; with Chenopodium album (setting [5]), 8%; in the test with Chenopodium album (setting [6]) it was 13%; in the test on Chenopodium album (setting [7]), 13.3% and 13%. In addition, the “herbicidal effect [%]” value in the test on Festuca ovina (setting [4]) is 6.7%; in the test with Festuca ovina (setting [5]), 35%; with Festuca ovina (setting [6]), 53%; in the test with Festuca ovina (setting [7]), 58.3% and 58%; in the test with Lotus corniculatus (45 g of active compound/ha) it was 0%; with Plantago lanceolata (45 g of active compound/ha), 8%. The “herbicidal effect [%]” value in the test with Plantago major (setting [4]) was 0%; in the test with Plantago major (setting [5]), 47%; in the test with Plantago major (setting [6]) it was 23%; in the test with Plantago major (setting [7]), 33.3% and 33%; in the test with Poa annua (15 g of active compound/ha), 18.3%; with Poa annua (45 g of active compound/ha), 48%. In addition, the “herbicidal effect [%]” value with Poa annua (60 g of active compound/ha) was 73.3% and 73%; in the test with Ranunculus repens (45 g of active compound/ha), 95%; in the test on Rumex acetosa (45 g of active compound/ha), 11%; with Stellaria media (45 g of active compound/ha) it was 18%; in the test on Taraxacum officinale (setting [4]), 45%; in the test on Taraxacum officinale (setting [5]), 55%. Besides, the “herbicidal effect [%]” value with Taraxacum officinale (setting [6]) is 70%; with Taraxacum officinale (setting [7]), 75%; with Trifolium repens (setting [4]), 18.3%; in the test with Trifolium repens (setting [5]) it was 20%; in the test with Trifolium repens (setting [6]), 53%; with Trifolium repens (setting [7]) it was 60%.
As for `COc1nc(C)nc(NC(=O)NS(=O)(=O)c2cc(I)ccc2C(=O)[O-])n1.[Na+]` [Iodosulfuron-methyl sodium salt, 4-iodo-2-[(4-methoxy-6-methyl-1,3,5-triazin-2-yl)carbamoylsulfamoyl]benzoate, sodium salt], the “herbicidal effect [%]” value worked out at 5% in the test on Achillea millefolium (1.25 g of active compound/ha); 10% with Bellis perennis (1.25 g of active compound/ha); 0% in the test on Chenopodium album (setting [8]); 13% in the test with Chenopodium album (setting [9]); 0% in the test with Chenopodium album (setting [10]); 10% with Chenopodium album (setting [11]). Besides, the “herbicidal effect [%]” value in the test with Chenopodium album (setting [12]) turned out to be 40%; with Festuca ovina (setting [8]), 0%; in the test with Festuca ovina (setting [9]), 0%; in the test on Festuca ovina (setting [10]) it was 0%; with Festuca ovina (setting [11]), 0%; in the test with Festuca ovina (setting [12]) it was 6.7%. Moreover, the “herbicidal effect [%]” value in the test with Lotus corniculatus (1.25 g of active compound/ha) turned out to be 0%; in the test on Plantago lanceolata (1.25 g of active compound/ha) it was 3%; in the test on Plantago major (setting [8]), 0%; with Plantago major (setting [9]), 22%; with Plantago major (setting [10]), 3%; in the test on Plantago major (setting [11]) it was 30%. Further, the “herbicidal effect [%]” value turned out to be 53.3% with Plantago major (setting [12]); 0% in the test on Poa annua (1 g of active compound/ha); 0% in the test with Poa annua (1.25 g of active compound/ha); 0% in the test with Poa annua (2.5 g of active compound/ha); 0% in the test with Poa annua (10 g of active compound/ha); 73% in the test on Ranunculus repens (1.25 g of active compound/ha). In addition, the “herbicidal effect [%]” value in the test on Rumex acetosa (1.25 g of active compound/ha) worked out at 12%; in the test with Stellaria media (1.25 g of active compound/ha), 22%; with Taraxacum officinale (setting [8]) it was 18.3%; with Taraxacum officinale (setting [9]), 50%; in the test on Taraxacum officinale (setting [10]), 18%; in the test with Taraxacum officinale (setting [11]) it was 42%. Also, the “herbicidal effect [%]” value in the test with Taraxacum officinale (setting [12]) is on record as 85%; with Trifolium repens (setting [8]), 18.3%; in the test on Trifolium repens (setting [9]), 10%; in the test on Trifolium repens (setting [10]) it was 32%; with Trifolium repens (setting [11]), 45%; in the test on Trifolium repens (setting [12]), 80%.
Turning to `COC(=O)c1ccc(CNS(C)(=O)=O)cc1S(=O)(=O)NC(=O)Nc1nc(OC)cc(OC)n1` [Mesosulfuron-methyl, methyl 2-[(4,6-dimethoxypyrimidin-2-ylcarbamoyl)sulfamoyl]-a-(methanesulfonamido)-p-toluate], the “herbicidal effect [%]” value in the test on Achillea millefolium (15 g of active compound/ha) came to 4%; in the test on Bellis perennis (15 g of active compound/ha), 5%; with Chenopodium album (setting [13]), 3%; in the test on Festuca ovina (setting [13]) it was 0%; with Lotus corniculatus (15 g of active compound/ha), 0%; in the test with Plantago lanceolata (15 g of active compound/ha), 0%. The “herbicidal effect [%]” value in the test on Plantago major (setting [13]) turned out to be 0%; in the test on Ranunculus repens (15 g of active compound/ha) it was 80%; with Rumex acetosa (15 g of active compound/ha) it was 2%; with Stellaria media (15 g of active compound/ha), 2%; with Taraxacum officinale (setting [13]), 42%; in the test with Trifolium repens (setting [13]), 2%.
As for `COC(=O)c1csc(C)c1S(=O)(=O)NC(=O)n1nc(OC)n(C)c1=O` [Thiencarbazone-methyl, methyl 4-[(4,5-dihydro-3-methoxy-4-methyl-5-oxo-1H-1,2,4-triazol-1yl)carbonylsulfamoyl]-5-methylthiophene-3-carboxylate], the “herbicidal effect [%]” value in the test on Achillea millefolium (20 g of active compound/ha) came out at 25%; with Bellis perennis (20 g of active compound/ha), 28%; in the test with Chenopodium album (setting [14]) it was 23%; in the test with Festuca ovina (setting [14]), 42%; with Lotus corniculatus (20 g of active compound/ha) it was 2%; in the test on Plantago lanceolata (20 g of active compound/ha), 67%. For the same compound, the “herbicidal effect [%]” value in the test with Plantago major (setting [14]) worked out at 87%; with Ranunculus repens (20 g of active compound/ha) it was 97%; with Rumex acetosa (20 g of active compound/ha), 52%; with Stellaria media (20 g of active compound/ha), 53%; with Taraxacum officinale (setting [14]) it was 38%; in the test on Trifolium repens (setting [14]), 55%.
